In this assay the target is Recombinant N-terminal GST tag full-length human HDAC11 (Homo sapiens (Human), UniProt Q96DB2). Nature of the assay: Probe binding HDAC11 assay, time resolved fluorescence (TRF). The following applies: read-out: HDAC11 IC50 Range. The procedure: The probe binding HDAC11 assay was performed using a time resolved fluorescence (TRF) assay format. Recombinant N-terminal GST tag full-length human HDAC11 was expressed and purified from baculovirus in Sf9 insect cells (SignalChem, # H93-30G-1000). Each assay was performed in 1536 black well microplates (Corning, #3936) in a final volume of 8 μL in assay buffer containing 50 mM HEPES (pH 7.5), 50 mM KCl, 50 mM NaCl, 0.5 mM GSH (L-Glutathione reduced, Sigma #G4251), 0.03% BGG (0.22 μM filtered, Sigma, #G7516-25G), and 0.01% Triton X-100 (Sigma, #T9284-10L). 100 nL of 10-point, 3-fold serial dilution in DMSO was pre-dispensed into respective wells of 1536 assay plates for a final test concentration range of 25 μM to 1.3 nM respectively. The final concentration in the assay of HDAC11 and probe (a fluorescein labeled HDAC 11 inhibitor) was 2.5 nM and 20 nM respectively. 4 μL of 2× probe and 2× anti-GST Terbium (Cisbio, #61GSTXLB) was added to assay plates followed by 4 μL of 2×HDAC11. Plates were incubated for 16 hours at room temperature before time resolved fluorescence was read on the Envision (Excitation at 340 nm, and Emission at 485 nm and 535 nm, Perkin Elmer).
Sequence of Recombinant N-terminal GST tag full-length human HDAC11 (Q96DB2 whole entry): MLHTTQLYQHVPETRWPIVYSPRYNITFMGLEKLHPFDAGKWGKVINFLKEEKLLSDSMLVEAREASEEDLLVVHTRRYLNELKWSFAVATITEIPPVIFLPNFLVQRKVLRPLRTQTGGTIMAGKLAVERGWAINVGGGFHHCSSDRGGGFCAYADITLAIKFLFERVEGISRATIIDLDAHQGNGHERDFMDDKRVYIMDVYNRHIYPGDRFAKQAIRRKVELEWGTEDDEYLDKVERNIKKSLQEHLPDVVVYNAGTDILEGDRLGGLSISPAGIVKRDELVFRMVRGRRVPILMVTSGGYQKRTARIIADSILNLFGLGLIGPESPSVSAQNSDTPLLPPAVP
Data from HDAC11 Assays were reported as percent inhibition (inh) compared with control wells based on the following equation: % inh=1−((FLU−AveLow)/(AveHigh−AveLow)) where FLU=measured time resolved fluorescence. AveLow=average time resolved fluorescence of no enzyme control (n=32). AveHigh=average time resolved fluorescence of DMSO control (n=32). IC50 values were determined by curve fitting of the standard 4 parameter logistic fitting algorithm included in the Activity Base software package: IDBS XE Designer Model205. Data is fitted using the Levenburg Marquardt algorithm.
As to `O=C(NO)c1cccc(Nc2nc3cc(Cl)c(C(F)(F)F)cc3[nH]2)c1` [Example 33-6, 3-((5-chloro-6-(trifluoromethyl)-1H-benzo[d]imidazol-2-yl)amino)-N-hydroxybenzamide], the 50% inhibitory concentration (IC50) (usually the concentration that gives 50% inhibition) was less than 500 nM.

For the compound `O=C(NO)c1cccc(Nc2nc3cc(Br)c(OC(F)(F)F)cc3[nH]2)c1` [Example 33-7, 3-((5-bromo-6-(trifluoromethoxy)-1H-benzo[d]imidazol-2-yl)amino)-N-hydroxybenzamide], the IC50 is less than 500 nM. Next, `O=C(NO)c1cccc(Nc2nc3cc4c(cc3[nH]2)OCCCO4)c1` [Example 33-8, 3-((7,8-dihydro-1H,6H-[1,4]dioxepino[2′,3′:4,5]benzo[1,2-d]imidazol-2-yl)amino)-N-hydroxybenzamide]: more than 1000 nM. Regarding `O=C(NO)c1cccc(Nc2nc3cc4c(cc3[nH]2)OCCO4)c1` [Example 33-9, 3-((6,7-dihydro-1H-[1,4]dioxino[2′,3′:4,5]benzo[1,2-d]imidazol-2-yl)amino)-N-hydroxybenzamide], the half-inhibitory concentration (IC50) lay within 500 to 1000 nM. On to `Cc1cc2[nH]c(Nc3cccc(C(=O)NO)c3)nc2cc1F` [Example 33-10, 3-((5-fluoro-6-methyl-1H-benzo[d]imidazol-2-yl)amino)-N-hydroxybenzamide], for which the IC50 is less than 500 nM. The figure for `O=C(NO)c1cccc(Nc2nc3cc(Br)c(C(F)(F)F)cc3[nH]2)c1` [Example 33-11, 3-((5-bromo-6-(trifluoromethyl)-1H-benzo[d]imidazol-2-yl)amino)-N-hydroxybenzamide] is less than 500 nM. Next, `Cc1cc2[nH]c(Nc3cccc(C(=O)NO)c3)nc2cc1Br` [Example 33-12, 3-((5-bromo-6-methyl-1H-benzo[d]imidazol-2-yl)amino)-N-hydroxybenzamide]: less than 500 nM; `COc1cc2nc(Nc3cccc(C(=O)NO)c3)[nH]c2cc1OC` [Example 33-13, 3-((5,6-dimethoxy-1H-benzo[d]imidazol-2-yl)amino)-N-hydroxybenzamide]: more than 1000 nM; `O=C(NO)c1cccc(Nc2nc3cc(Cl)c(Cl)cc3[nH]2)c1` [Example 33-14, 3-((5,6-dichloro-1H-benzo[d]imidazol-2-yl)amino)-N-hydroxybenzamide]: less than 500 nM.

On to `O=C(NO)c1cccc(Nc2nc3cc(Cl)c([N+](=O)[O-])cc3[nH]2)c1` [Example 33-15, 3-((5-chloro-6-nitro-1H-benzo[d]imidazol-2-yl)amino)-N-hydroxybenzamide], for which the IC50 is less than 500 nM. On to `O=C(NO)c1cccc(Nc2nc3cc(F)c(Br)cc3[nH]2)c1` [Example 33-16, 3-((6-bromo-5-fluoro-1H-benzo[d]imidazol-2-yl)amino)-N-hydroxybenzamide], for which the half-maximal inhibitory concentration (IC50) is less than 500 nM. Regarding `O=C1COc2cc3[nH]c(Nc4cccc(C(=O)NO)c4)nc3cc2N1` [Example 33-18, N-hydroxy-3-((7-oxo-3,6,7,8-tetrahydroimidazo[4′,5′:4,5]benzo[1,2-b][1,4]oxazin-2-yl)amino)benzamide], the IC50 is more than 1000 nM. Next, `COc1cc2nc(Nc3cccc(C(=O)NO)c3)[nH]c2cc1Cl` [Example 33-19, 3-((6-chloro-5-methoxy-1H-benzo[d]imidazol-2-yl)amino)-N-hydroxybenzamide]: 500 to 1000 nM; `O=C(NO)c1cccc(Nc2nc3cc(Cl)ccc3[nH]2)c1` [Example 33-20, 3-((5-chloro-1H-benzo[d]imidazol-2-yl)amino)-N-hydroxybenzamide]: more than 1000 nM; `O=C(NO)c1cccc(Nc2nc3cc([N+](=O)[O-])ccc3[nH]2)c1` [Example 33-21, N-hydroxy-3-((5-nitro-1H-benzo[d]imidazol-2-yl)amino)benzamide]: 500 to 1000 nM.

On to `O=C(NO)c1cccc(Nc2nc3cc(C(F)(F)F)ccc3[nH]2)c1` [Example 33-22, N-hydroxy-3-((5-(trifluoromethyl)-1H-benzo[d]imidazol-2-yl)amino)benzamide], for which the IC50 was less than 500 nM. With `CS(=O)(=O)c1ccc2[nH]c(Nc3cccc(C(=O)NO)c3)nc2c1` [Example 33-23, N-hydroxy-3-((5-(methylsulfonyl)-1H-benzo[d]imidazol-2-yl)amino)benzamide], the IC50 is more than 1000 nM. Next, `NS(=O)(=O)c1ccc2[nH]c(Nc3cccc(C(=O)NO)c3)nc2c1` [Example 33-24, N-hydroxy-3-((5-sulfamoyl-1H-benzo[d]imidazol-2-yl)amino)benzamide]: more than 1000 nM; `CN(c1cccc(C(=O)NO)c1)c1nc2cc(-c3cccnc3)c(C(F)(F)F)cc2n1C` [Example 34-1, N-hydroxy-3-(methyl(1-methyl-5-(pyridin-3-yl)-6-(trifluoromethyl)-1H-benzo[d]imidazol-2-yl)amino)benzamide]: more than 1000 nM; `CN(c1cccc(C(=O)NO)c1)c1nc2cc(C(F)(F)F)c(-c3cccnc3)cc2n1C` [Example 34-2, N-hydroxy-3-(methyl(1-methyl-6-(pyridin-3-yl)-5-(trifluoromethyl)-1H-benzo[d]imidazol-2-yl)amino)benzamide]: more than 1000 nM.

For `CN(c1cccc(C(=O)NO)c1)c1nc2cc(C(F)(F)F)c(-c3ccccc3)cc2n1C` [Example 34-3, N-hydroxy-3-(methyl(1-methyl-6-phenyl-5-(trifluoromethyl)-1H-benzo[d]imidazol-2-yl)amino)benzamide], the IC50 lay within 500 to 1000 nM. `Cn1c(Nc2cccc(C(=O)NO)c2)nc2cc(-c3cccnc3)c(C(F)(F)F)cc21` [Example 35-1, N-hydroxy-3-((1-methyl-5-(pyridin-3-yl)-6-(trifluoromethyl)-1H-benzo[d]imidazol-2-yl)amino)benzamide]: the IC50 was 500 to 1000 nM. For `Cn1c(Nc2cccc(C(=O)NO)c2)nc2cc(C(F)(F)F)c(-c3cccnc3)cc21` [Example 35-2, N-hydroxy-3-((1-methyl-6-(pyridin-3-yl)-5-(trifluoromethyl)-1H-benzo[d]imidazol-2-yl)amino)benzamide], the IC50 is less than 500 nM. Take `Cn1c(Nc2cccc(C(=O)NO)c2)nc2cc(C(F)(F)F)c(-c3ccccc3)cc21` [Example 35-3, N-hydroxy-3-((1-methyl-6-phenyl-5-(trifluoromethyl)-1H-benzo[d]imidazol-2-yl)amino)benzamide]: the IC50 was less than 500 nM. Take `O=C(NO)c1cccc(Nc2nc3cc(-c4ccccc4)c(C(F)(F)F)cc3[nH]2)c1` [Example 36-1, N-hydroxy-3-((5-phenyl-6-(trifluoromethyl)-1H-benzo[d]imidazol-2-yl)amino)benzamide]: the concentration for half-maximal inhibition (IC50) was less than 500 nM. For the compound `O=C(NO)c1cccc(Nc2nc3cc(C(F)(F)F)c(-c4cccnc4)cc3[nH]2)c1` [Example 36-2, N-hydroxy-3-((6-(pyridin-3-yl)-5-(trifluoromethyl)-1H-benzo[d]imidazol-2-yl)amino)benzamide], the IC50 was less than 500 nM.

`O=C(NO)c1cccc(Nc2nc3cc(-c4ccncc4)c(C(F)(F)F)cc3[nH]2)c1` [Example 36-3, N-hydroxy-3-((5-(pyridin-4-yl)-6-(trifluoromethyl)-1H-benzo[d]imidazol-2-yl)amino)benzamide]: the IC50 was less than 500 nM. The figure for `CCOc1cccc(-c2cc3[nH]c(Nc4cccc(C(=O)NO)c4)nc3cc2C(F)(F)F)c1` [Example 36-4, 3-((6-(3-ethoxyphenyl)-5-(trifluoromethyl)-1H-benzo[d]imidazol-2-yl)amino)-N-hydroxybenzamide] is less than 500 nM; for `CSc1ccc(-c2cc3[nH]c(Nc4cccc(C(=O)NO)c4)nc3cc2C(F)(F)F)cc1` [Example 36-5, N-hydroxy-3-((6-(4-(methylthio)phenyl)-5-(trifluoromethyl)-1H-benzo[d]imidazol-2-yl)amino)benzamide] it is less than 500 nM. The figure for `CN(C)C(=O)c1ccc(-c2cc3[nH]c(Nc4cccc(C(=O)NO)c4)nc3cc2C(F)(F)F)cc1` [Example 36-6, 4-(2-((3-(hydroxycarbamoyl)phenyl)amino)-5-(trifluoromethyl)-1H-benzo[d]imidazol-6-yl)-N,N-dimethylbenzamide] is less than 500 nM. Regarding `COCc1ccc(-c2cc3[nH]c(Nc4cccc(C(=O)NO)c4)nc3cc2C(F)(F)F)cc1` [Example 36-7, N-hydroxy-3-((6-(4-(methoxymethyl)phenyl)-5-(trifluoromethyl)-1H-benzo[d]imidazol-2-yl)amino)benzamide], the 50% inhibitory concentration (IC50) was less than 500 nM. As for `O=C(NO)c1cccc(Nc2nc3cc(C(F)(F)F)c(-c4ccc5ncccc5c4)cc3[nH]2)c1` [Example 36-8, N-hydroxy-3-((6-(quinolin-6-yl)-5-(trifluoromethyl)-1H-benzo[d]imidazol-2-yl)amino)benzamide], the IC50 was less than 500 nM. Turning to `O=C(NO)c1cccc(Nc2nc3cc(C(F)(F)F)c(-c4ccc5c(c4)OCCO5)cc3[nH]2)c1` [Example 36-9, 3-((6-(2,3-dihydrobenzo[b][1,4]dioxin-6-yl)-5-(trifluoromethyl)-1H-benzo[d]imidazol-2-yl)amino)-N-hydroxybenzamide], the IC50 was less than 500 nM.

These data come from patent US10508088B2, “Methods using HDAC11 inhibitors” (FORMA Therapeutics, Inc., priority 2016, dated 2019).
